Assay results from ChEMBL document CHEMBL3045167, “Synthesis and evaluation of antiinflammatory activity of substituted chalcone derivatives” (2010).
The source made the active and inactive calls. No cut-off for these calls is given here.

Legend:
Assay type in all cases: functional
[1] = tested on: Mus musculus; test: Anti-inflammatory activity in Mus musculus Kunming (mouse) assessed as inhibition of xylene-induced ear edema at 200 mg/kg, po administered 2 hr prior to xylene challenge measured at 2 hr post xylene challenge relative to control
[2] = tested on: Mus musculus; test: Anti-inflammatory activity in Mus musculus Kunming (mouse) assessed as inhibition of xylene-induced ear edema at 100 mg/kg, po administered 2 hr prior to xylene challenge measured at 2 hr post xylene challenge relative to control
[3] = tested on: Mus musculus; test: Anti-inflammatory activity in Mus musculus Kunming (mouse) assessed as inhibition of xylene-induced ear edema at 200 mg/kg, po administered 24 hr prior to xylene challenge measured at 24 hr post xylene challenge relative to control
[4] = tested on: Mus musculus; test: Anti-inflammatory activity in Mus musculus Kunming (mouse) assessed as inhibition of xylene-induced ear edema at 200 mg/kg, po administered 4 hr prior to xylene challenge measured at 4 hr post xylene challenge relative to control
[5] = tested on: Mus musculus; test: Anti-inflammatory activity in Mus musculus Kunming (mouse) assessed as inhibition of xylene-induced ear edema at 200 mg/kg, po administered 3 hr prior to xylene challenge measured at 3 hr post xylene challenge relative to control
[6] = tested on: Mus musculus; test: Anti-inflammatory activity in Mus musculus Kunming (mouse) assessed as inhibition of xylene-induced ear edema at 200 mg/kg, po administered 1 hr prior to xylene challenge measured at 1 hr post xylene challenge relative to control
[7] = tested on: Mus musculus; test: Anti-inflammatory activity in Mus musculus Kunming (mouse) assessed as inhibition of xylene-induced ear edema at 200 mg/kg, po administered 0.5 hr prior to xylene challenge measured at 0.5 hr post xylene challenge relative to control
[8] = tested on: Mus musculus; test: Anti-inflammatory activity in Mus musculus Kunming (mouse) assessed as inhibition of xylene-induced ear edema at 50 mg/kg, po administered 2 hr prior to xylene challenge measured at 2 hr post xylene challenge relative to control

O=C(/C=C/c1cccc([N+](=O)[O-])c1)c1ccc(O)cc1O
inhibition in vivo at 200 mg/kg [1]: 30%

COc1ccc(/C=C/C(=O)c2ccc(O)cc2O)cc1
inhibition in vivo at 200 mg/kg [1]: 51.4%

O=C(/C=C/c1ccc(O)cc1)c1ccc(O)cc1O [ISOLIQUIRITIGENIN]
inhibition in vivo at 200 mg/kg [1]: 14.9%

O=C(/C=C/c1ccccc1[N+](=O)[O-])c1ccc(O)cc1O
inhibition in vivo at 200 mg/kg [1]: 20.2%

O=C(/C=C/c1ccc(Cl)cc1)c1ccc(O)cc1O
inhibition in vivo at 100 mg/kg [2]: 49%
inhibition in vivo at 200 mg/kg [3]: 21.5%
inhibition in vivo at 200 mg/kg [4]: 32.3%
inhibition in vivo at 200 mg/kg [5]: 33.6%
inhibition in vivo at 200 mg/kg [6]: 32.5%
inhibition in vivo at 200 mg/kg [7]: 30.2%
inhibition in vivo at 200 mg/kg [1]: 68.2%
inhibition in vivo at 50 mg/kg [8]: 18.6%

O=C(/C=C/c1ccc(Cl)cc1Cl)c1ccc(O)cc1O
inhibition in vivo at 200 mg/kg [1]: 26%

CC(C)Cc1ccc(C(C)C(=O)O)cc1 (stereo unspecified) [IBUPROFEN]
inhibition in vivo at 100 mg/kg [2]: 33%
inhibition in vivo at 200 mg/kg [3]: 20.6%
inhibition in vivo at 200 mg/kg [4]: 30.1%
inhibition in vivo at 200 mg/kg [5]: 34.5%
inhibition in vivo at 200 mg/kg [6]: 41.6%
inhibition in vivo at 200 mg/kg [7]: 32.5%
inhibition in vivo at 200 mg/kg [1]: 53.5%
inhibition in vivo at 50 mg/kg [8]: 19.8%

O=C(/C=C/c1ccc(O)cc1)c1ccc(O)cc1 [4,4'-DIHYDROXYCHALCONE]
inhibition in vivo at 200 mg/kg [1]: 5.42%

COc1cc(/C=C/C(=O)c2ccc(O)cc2)ccc1O
inhibition in vivo at 200 mg/kg [1]: 7.83%

Cc1ccc(/C=C/C(=O)c2ccc(O)cc2O)cc1
inhibition [1]: inactive

CN(C)c1ccc(/C=C/C(=O)c2ccc(O)cc2)cc1
inhibition in vivo at 200 mg/kg [1]: 17.3%

O=C(/C=C/c1ccc(O)c(O)c1)c1ccc(O)cc1O [BUTEIN]
inhibition in vivo at 200 mg/kg [1]: 14.4%

COc1cc(/C=C/C(=O)c2ccc(O)cc2O)ccc1O [HOMOBUTEIN]
inhibition in vivo at 200 mg/kg [1]: 25.2%

O=C(/C=C/c1ccc2c(c1)OCO2)c1ccc(O)cc1O
inhibition in vivo at 200 mg/kg [1]: 22%

CN(C)c1ccc(/C=C/C(=O)c2ccc(O)cc2O)cc1
inhibition in vivo at 100 mg/kg [2]: 32.9%
inhibition in vivo at 200 mg/kg [3]: 21.2%
inhibition in vivo at 200 mg/kg [4]: 25.3%
inhibition in vivo at 200 mg/kg [5]: 27.5%
inhibition in vivo at 200 mg/kg [6]: 45.8%
inhibition in vivo at 200 mg/kg [7]: 41.7%
inhibition in vivo at 200 mg/kg [1]: 62.5%
inhibition in vivo at 50 mg/kg [8]: 15.1%
